# Results as given in patent US6759238B1, “Multidrug resistance associated proteins and uses thereof” (priority 1999, dated 2004).
# Several values for one entry are separate records, joined by “and”; a condition that tells them apart may be missing. Identical values can stand only once. Like-named read-outs stand apart in the source and are kept apart here.
# How the values were obtained:
# [1] = tested on: HIV-1IIIB in CEM-r1 cells; assay: Antiviral activity (ED50, RT / p24 assay) in resistant cells; format: cell-based
# Source text: (§1) As used herein, “pM” means picomolar, “nM” means nanmolar, “μM, means micromolar, “mM” means millimolar, “ul” or “μl” mean microliter, “ml” means milliliter, “l” means liter. […] “IC50” means the inhibitory concentration at which growth is arrested by 50 percent.
# (§2) The two cell lines, CEM-SS and CEM-r1 were infected with HIV-IMB at a multiplicity of 0.01, and cultured for 6 days in the presence and absence of different concentrations of test drugs. The extent of virus production was monitored by in in-house p24 antigen capture assay (50).
# The antiviral effects of the different drugs were monitored by RT assays according to previously described procedures (20, 21). CEM-SS or CEM-r1 cells were infected with an inoculum of HIV-1IIIB standardized to contain 1 RT cpm/cell, and the virus-infected cells were seeded at a concentration of 0.2×10^6 cells/ml in medium containing varying concentrations of PMEA (or other test compounds). After 5 days of incubation, the RT activity of the culture supernates was determined by previously described procedures (22). […] The reaction was initiated by addition of 10 ul of virus-containing tissue culture supernatant. After 1 hr of incubation, 10 ul of the reaction mixture were spotted on a Whatman DE-81 tilter paper, air dried, and washed four times with 2×standard saline citrate (0.3 M NaCl, 0.03 M sodium citrate). The filter papers were dried, transferred to a plastic bag containing scintillation cocktail, sealed, and counted in an LKB Betaplate reader. The drug concentrations yielding half-maximal RT activity (ED50) was calculated as a measure of the antiviral efficacy of the test compounds, using the nonlinear curve-fitting software Enzfitter (Elsevier Biosoft, Cambridge, UK).
# [2] = tested on: CEM-SS cells; assay: Phosphorylation of AZT; format: in vitro ADME, human; conditions: 10 μM AZT
# Description: (§3) The appearance of the phosphorylated metabolites into the medium was also determined in both the cell lines. AZTDP and AZTTP were not detected in the medium of either CEM-SS or CEM-r1 cells. However, the amount of AZTMP accumulated in the media was approximately 3-fold higher in CEM-r1 cells than in CEM-SS cells.
# (§4) The cartridges were conditioned with 10% MeOH Ammonium Phosphate Buffer (5 mM, pH 4.0). The sample was loaded onto the column. […] AZTDP and AZTTP were eluted with 10% MeOH Ammonium Phosphate Buffer (700 mm, pH 4.6).
# [3] = tested on: CEM-r1 cells; assay: Phosphorylation of AZT; format: in vitro ADME, human; conditions: CEM-r1, 10 μM AZT
# Description: as §3, §4
# [4] = Cytotoxicity assay (growth inhibition, Coulter counter); conditions: human
# Description: (§5) Selection for PMEA resistance was carried out by exposing CEM-SS cells in culture to increasing concentrations of PMEA, over several months.
# (§6) The IC50 values were obtained after 2 days of culture. Each result is the mean of one representative experiment performed in duplicate. The cultures with the purine nucleosides adenosine, 2′-deoxyadenosine, and arabinosyladenine contained 5 μM deoxycoformycin to inhibit adenosine deaminase activity.
# (§7) All assays were performed in 24-well tissue culture plates (Costar, Cambridge, Ma.). […] At the end of the incubation, the cell concentrations, sizes, and volumes were counted in a Coulter counter (Coulter Electronics, Hialeah. Fla.).
# [5] = tested on: CEM-r1 cells; assay: as above
# Description: as §5, §6, §7
# [6] = Efflux of [3H]-AZT and its metabolites; format: in vitro ADME, human; conditions: human, t½ for intracellular AZT, CEM-SS
# Description: (§8) Cells were incubated for 60 minutes with [^3H]-AZT (10 μM) after which they were washed free of radioactivity, resuspended in drug-free medium and the intracellular and the extracellular concentration of [^3H]-AZT were measured. […] At least 80% of the AZTMP present intracellularly in CEM-r1 cells was excreted into the medium in 10 minutes (FIG. 6A).
# (§9) Referring to Table 6 in greater detail, efflux kinetics were studied. Transport analysis of PMEA was conducted as previously described^48. […] The cells were then washed free of radioactivity and then incubated in drug-free medium in the presence of sodium azide and 2-deoxy-D-glucose. At various time periods, the amount of intracellular AZTMP was measured. As reported in Table 6, depletion of ATP led to an inhibition of AZTMP efflux (i.e. a significant accumulation of AZTMP in the CEM-r1 cells but not in the CEM-SS cells).
# (§10) The suspension was centrifuged at 3,300 rpm for 7 minutes. All but 1 ml of the supernatant medium containing the free drug was aspirated. […] The cell pellet was then washed with ice-cold medium and resuspended at the same concentration in drug-free medium and maintained at 37° C. […] An aliquot of the top layer (cell free media) was analyzed for the quantitation of AZT and its metabolites.
# [7] = tested on: HIV-1IIIB in CEM-SS cells; assay: Antiviral activity (ED50, RT / p24 assay) in wild type cells; format: cell-based; conditions: Human immunodeficiency virus 1, WT (CEM-SS) cells
# Source text: as §1, §2
# The antiviral effects of the different drugs were monitored by RT assays according to previously described procedures (20, 21). […] After 5 days of incubation, the RT activity of the culture supernates was determined by previously described procedures (22). […] The filter papers were dried, transferred to a plastic bag containing scintillation cocktail, sealed, and counted in an LKB Betaplate reader. The drug concentrations yielding half-maximal RT activity (ED50) was calculated as a measure of the antiviral efficacy of the test compounds, using the nonlinear curve-fitting software Enzfitter (Elsevier Biosoft, Cambridge, UK).
# [8] = Cytotoxicity assay (growth inhibition, Coulter counter); conditions: human, CEM-SS cells (wild type, parental)
# Description: (§11) […] Each result is the mean of one representative experiment performed in duplicate. The cultures with the purine nucleosides adenosine, 2′-deoxyadenosine, and arabinosyladenine contained 5 μM deoxycoformycin to inhibit adenosine deaminase activity.
# as §7
# [9] = tested on: CEM-SS cells; assay: as above
# Description: as §11, §7
# [10] = Efflux of [3H]-AZT and its metabolites; format: in vitro ADME, human; conditions: human, t½ for intracellular AZT, CEM-r1
# Description: as §8, §9, §10
# [11] = tested on: CEM-SS and CEM-r1 cells; assay: Uptake of [3H]-AZT; format: in vitro ADME, human; conditions: 10 μM and 100 μM, up to 120 seconds
# Description: At various time periods (0, 10, 20, 30, 40, 60, 90, 120 seconds) from the start of the incubation, aliquots of the cell suspension were removed and centrifuged through Nyosil 50 (W. F. Nye, Inc.,New Bedford, Ma.) at 14,000×g for 60 seconds at 4° C.
# [12] = tested on: CEM-SS cells; assay: Uptake and metabolism of [3H]PMEA; conditions: 10 μM [3H]PMEA
# Description: (§16) The mutant and parental cells were incubated with 10 μM [^3H]PMEA and at various times were analyzed for intracellular levels of PMEA and its metabolites by Partisil SAX HPLC. […] The metabolism of [^3H]PMEA was also examined in both cell lines after longer periods (i.e., 8 and 12 hr) of incubation with 10 μM [^3H]PMEA.
# (§17) Exponentially growing cultures were incubated with 10 μM [^3H] PMEA for 8 or 12 hr and the cell extracts were analyzed for PMEA and its metabolites by ion exchange HPLC, as described.
# (§18) Exponentially growing CEM-SS and CEM-r1 cells were harvested by centrifugation, resuspended at 1×10^6 cells/ml in fresh medium in the presence of [^3H]PMEA or [^3H]bispom-PMEA, and incubated at 37° C. At the indicated time points, aliquots of the cells were removed and centrifuged through Nyosil 50 (W. F. Nye, Inc., New Bedford, Ma.) at 13,000×g for 60 seconds at 4° C. When bispom-PMEA was investigated, an aliquot of the cell-free medium was also removed and analyzed by HPLC for determination of extracellular metabolites. The cell pellet was extracted with 70% ice-cold methanol and the aqueous phase was collected and analyzed for intracellular tritiated PMEA or tritiated bispom-PMEA and their metabolites by using HPLC analysis, essentially as described previously (23, 24).
# [13] = tested on: CEM-r1 cells; assay: Efflux of PMEA from bispom-PMEA loaded cells; format: in vitro ADME, human
# Description: (§12) To examine whether the resistant cells could be altered in their capacity to retain the phosphonate analog, the clearance of [^3H]PMEA and its metabolites from CEM-SS and CME-r1 cells was determined. […] Aliquots of cells and medium sampled at different intervals over a period of 2 hr were analyzed by HPLC, and the results are shown in FIG. 4. […] Some of this clearance was probably due to the anabolism of PMEA, because the PMEAp- and PMEApp-associated radioactivity continued to accumulate within the cells, but the majority of the radioactivity was excreted into the medium as PMEA. In contrast to the results with parental cells, loss of intracellular PMEA-associated radioactivity in the resistant CEM-r1 cells was extremely rapid and the majority of the radioactivity within the cells was excreted into the medium within 20-30 minutes of incubation (FIG. 4).
# (§13) Both CEM-SS and CME-r1 cells were incubated for 3 minutes with increasing concentrations (range 0.07 mM to 8.80 mM) of the prodrug for the selecting agent, Bis(POM)PMEA. After incubation, the cells were pelleted and reconstituted in drug-free medium, and the amount of PMEA present in the medium and intracellularly was measured 15 minutes after resuspension. The amount of PMEA effluxing out into the medium at 15 minutes increased initially with increasing concentration (FIG. 7A).
# CEM-r1 cells were incubated with 0.07-8.8 mM Bis(POM)PMEA for 3 minutes. The cells were pelleted and reconstituted in either drug-free medium or in medium containing 0.5 mM PMEA, and the amount of PMEA present in the medium and intracellularly was measured 15 minutes after resuspension.
# as §9
# (§14) At the indicated times, extracts were prepared from the cells and the medium, and the prodrug and its various nucleoside/nucleotide metabolites were analyzed by HPLC as described previously (24).
# [14] = tested on: CaCo-2 cells; assay: PMEA transport in transwell culture; format: in vitro ADME; conditions: CaCo-2
# Source text: A transwell culture which is permissive for cellular polarization may be used to measure the compartment to compartment flux of putative substrates. […] In addition, it is possible that expression of MPR4 depending if it is basal or apical (and this may vary by organ cultured) may determine if PMEA or PMEA-like drugs are absorbed.
# [15] = tested on: CEM-SS cells; assay: Efflux of PMEA from bispom-PMEA loaded cells; format: in vitro ADME, human; conditions: for Efflux kinetics, PMEA: CEMss
# Description: as §12, §13, §9, §14
# [16] = tested on: CEM/VLB100
# [17] = tested on: CEM-r1 cells; assay: Uptake and metabolism of [3H]PMEA; conditions: for Intracellular levels: CEM-r1, 10 μM [3H]PMEA
# Description: as §16, §17, §18
# [18] = tested on: CEM-SS cells; assay: Uptake and metabolism of [3H]bispom-PMEA; conditions: CEM-SS, 1 μM [3H]bispom-PMEA, 15 minutes
# Description: (§15) Therefore, the metabolism of [^3H]bispom-PMEA (15), a lipophilic prodrug of PMEA, was analyzed in the two cell lines in order to further examine the mechanism of resistance in the mutant cell line.
# [19] = tested on: CEM-r1 cells; assay: Uptake and metabolism of [3H]bispom-PMEA
# Description: as §15
# [20] = CEM-r1, 1 μM [3H]bispom-PMEA, 15 minutes
smiles,measurement,setting,value
"Cc1cn([C@H]2C[C@H](N=[N+]=[N-])[C@@H](CO)O2)c(=O)[nH]c1=O [AZT, zidovudine]",EC50,"[1]; Human immunodeficiency virus 1, CEM-r1 cells, HIV",0.14 µM
same,Intracellular Concentration,[2]; 4 hours,10 µM
same,Intracellular Concentration,[2]; 8 hours,8 µM
same,Intracellular Concentration,[2]; 24 hours,10 µM
same,Intracellular Concentration,[3]; 8 hours,5.2 µM
same,Intracellular Concentration,[3]; 24 hours,4.3 µM
same,IC50 at 48 h,[4],3000 µM
same,IC50,"[5]; Homo sapiens, 24 h, read-out: Drug sensitivity (concentration to inhibit 50% growth)",3000 µM
same,half-life at 10 μM,[6],8.1 min
same,EC50,[7],0.006 µM
same,IC50 at 48 h,[8],500 µM
same,IC50,"[9]; Homo sapiens, CEM-SS, 24 h, read-out: Drug sensitivity (concentration to inhibit 50% growth)",500 µM
same,half-life at 10 μM,[10],6.5 min
same,Cellular uptake in the two cell lines,[11],similar
"Nc1ncnc2c1ncn2CCOCP(=O)(O)O [PMEA, 9-(2phosphonylmethoxyethyl)adenine]",Intracellular levels,[12]; 8 hr,1.7 µM
same,Intracellular levels,[12]; 12 hr,2.5 µM
same,Fold Resistance (antiviral activity),[1]; CEM-r1 vs WT,>150
same,IC50,"[5]; CEM-r1, 2 days of culture (Table 3)",6200 µM
same,Relative Resistance,[5]; CEM-r1 vs CEM-SS (Table 3),182
same,"Resistance of CEM-r1 cells to the cytotoxic effects, compared with the parental cells",[5]; CEM-r1 vs parental CEM-SS,~250 fold and > 250 fold
same,Fold Resistance (cytotoxicity),[5]; ratio of IC50 of resistant line to IC50 of wild type,250
same,IC50,"[5]; read-out: Cytotoxicity IC50, CEM-r1 cells (Table 5)",20000 µM
same,"Increase in rate of efflux, CEM-r1 vs CEM-SS",[13],~7 fold
same,Amount of PMEA effluxed in the presence or absence of PMEA in the medium,"[13]; CEM-r1, medium with 0.5 mM PMEA vs drug-free",no significant difference
same,Time within which the majority of the radioactivity was excreted into the medium,"[13]; CEM-r1 cells, loaded with 2 μM [3H]bispom-PMEA, drug-free medium",20 to 30 min
same,"Efflux kinetics, PMEA","[13]; CEMr-1, Azide + Deoxyglucose",>26 min
same,"Efflux kinetics, PMEA","[13]; CEMr-1, no treatment",4.4 min
same,Rate of efflux,[13]; resistant CEM-r1 cells,2.55 pmol/min/10^6
same,Direction of transport in transwell culture,[14],more rapidly transported from the apical to the basal side
same,"Efflux kinetics, PMEA",[15]; Azide + Deoxyglucose,>26 min
same,"Efflux kinetics, PMEA",[15]; no treatment,>26 min
same,Rate of efflux,[15]; parental CEM-SS cells,0.4 pmol/min/10^6 cells
same,Time to half-maximal clearance of intracellular radioactivity,"[15]; parental CEM-SS cells, loaded with 1 μM [3H]bispom-PMEA, drug-free medium",about 60 min
same,IC50,"[9]; CEM-SS, 2 days of culture (Table 3)",34 µM
same,IC50,"[9]; read-out: Cytotoxicity IC50, WT (CEM-SS) cells (Table 5)",80 µM
same,IC50,"[9]; read-out: Drug sensitivity (concentration to inhibit 50% growth), CEMss, 24 h exposure (Table 6)",80 µM
same,Cross-resistance of MDR mutant CEM/VLB100,[16],did not exhibit any cross-resistance
same,Intracellular levels,[17]; 8 hr,1.0 µM
same,Intracellular levels,[17]; 12 hr,1 µM and 0.99 µM
same,Intracellular level in CEM-r1 as percent of the wildtype level,"[17]; CEM-r1 vs CEM-SS, 8 hr",(56%)
same,"Metabolite Levels, Cells",[18],33.1 µM
same,"Metabolite Levels, Medium",[18],4.8 nM
same,Levels in CEM-r1 cells relative to those seen in parental cells,"[19]; 1 μM [3H]bispom-PMEA, 15 min",about one third
same,"Metabolite Levels, Cells",[19]; [20],13.3 µM
same,"Metabolite Levels, Medium",[19]; [20],23.2 nM
same,"Levels of extracellular PMEA, CEM-r1 vs parental CEM-SS","[19]; medium, 1 μM [3H]bispom-PMEA, 15 min",~5 fold
